# Experimental data as given in patent US20250108036A1, “COMPOSITIONS FOR REMOVING SENESCENT CELLS AND USES THEREOF” (LIFECEUTIX CO., LTD., priority 2021, published 2025).
# Legend:
# Splenocyte = details: cited from earlier work
# HMGN1 [1] = test: HMGN1 ELISA in culture medium of foreskin cells (Examples 10, 11; Tables 62, 63, 64); type: cell-based, human; details: for HMGN1: 30 μM test compound, doxorubicin-treated foreskin cells, DMSO = 100
# HMGB1 = HMGB1 ELISA in culture medium of senescent foreskin cells (Example 10, Table 62); type: cell-based, human
# Method: After 6 hours, the amounts of HMGB1 and HMGN1 secreted into the cell culture medium were measured using an enzyme-linked immunosorbent assay (ELISA Kit, purchased from AssayGenie).
# [2] = tested on: foreskin cells in which aging was induced by doxorubicin; test: cell viability of senescent foreskin cells with caspase inhibitor QVD-Oph (Example 10, Table 61); type: cell-based, human; details: ABT-263 1 μM; for Survial (%): doxorubicin-senescent foreskin cells, 3 days
# p16, MMP3, IL6 [3] = test: p16, MMP3, IL6 mRNA qRT-PCR in groin fat of obese mice given senescent cells killed by test compounds (Example 16, Table 72); type: in vivo, C57BL6J mice; details: obese mice administered senescent cells whose death was induced by the test compound
# Description: To obtain preadipocytes, groin fat tissue was collected from an 8-week-old female C57BL6J mouse (purchased from KRIBB Laboratory Animal Resource Center). The fat tissue was cut into small pieces and treated with collagenase to decompose the fat tissue, then centrifuged to collect the stromal vascular fraction (SVF) containing preadipocytes. It was washed with a washing medium (HBSS, purchased from GenDEPOT; 3.5% Albumin Fraction V, purchased from GenDEPOT; 100 U/ml Penicillin & Streptomycin, purchased from Invitrogen), mixed again, and extracted by filtering through a 100 μm nylon mesh. The isolated preadipocytes were cultured in the designated medium (DMEM, purchased from GenDEPOT; 20% FBS, purchased from GenDEPOT; 100 U/ml Penicillin & Streptomycin, purchased from Invitrogen). In the same manner as Example 1, cells were treated with doxorubicin at a concentration of 250 nM for 24 hours and cultured for an additional 21 days to induce cell senescence. Cells were treated with doxorubicin at a concentration of 250 nM for 24 hours and cultured for an additional 21 days to induce cell senescence. By treating the test compounds in the same manner as in Example 13, it was confirmed using an optical microscope that the death of most senescent cells was induced. The killed preadipocytes were washed using PBS (purchased from Welgene) and then mixed with PBS at a concentration of 5×10^5 cells/200 μl. It was administered subcutaneously to 8-week-old female C57BL6J mice (purchased from KRIBB Laboratory Animal Resource Center). At 7 and 10 days after administration of the killed senescent cells, 2 million senescent preadipocytes were mixed in 200 μl of PBS and administered into the abdominal cavity of mice. After administration of killed senescent cells, obesity was induced in mice with a high-fat diet (DIO) for 8 weeks in the same manner as in Example 9-1. Afterwards, the mouse was sacrificed in the same manner as in Example 7-2, total RNA was extracted from the groin fat tissue, and qRT-PCR was performed and analyzed using the synthesized cDNA. […] The mRNA amount of p16, MMP3, and IL6 without administration of senescent cells whose death was induced by the test compounds was calculated as 100%, and the amount of p16, MMP3, and IL6 after administration of the senescent cells whose death was induced by the test compounds was compared with them. Furthermore, an open field test was performed to analyze aging-related frailty in mice using the same method as Example 7-7. […] The amount of activity evaluation without administration of senescent cells whose death was induced by the test compounds was calculated as 100% and compared it with the amount of activity evaluation after administration of senescent cells whose death was induced by the test compounds. […]
# p16, MMP3, IL6 [4] = test: p16, MMP3, IL6 mRNA qRT-PCR in liver of naturally aged mice treated with test compounds (Example 15, Table 71); type: in vivo, C57BL6J mice; details: liver tissue of naturally aged mice treated with test compound
# A549 = test: CellTiter-Glo cell viability of senescent A549 cancer cells (Example 12, Table 67); type: cell-based, human; details: doxorubicin-induced senescent A549 cancer cells, CellTiter-Glo
# [5] = open field test in naturally aged mice treated with test compounds (Example 15, Table 71); type: in vivo, C57BL6J mice; details: naturally aged mice treated with test compound
# senescent foreskin cells = test: survival of senescent foreskin cells treated with medium supernatant (secreted fluid) of compound-killed cells (Example 13, Tables 68, 69); type: cell-based, human; details: culture medium supernatant from dying senescent cells treated with compound at 30 μM, 90 μM or 270 μM; senescent foreskin cells
# [6] = tested on: foreskin cells in which senescence was induced by doxorubicin; test: CellTiter-Glo cell viability of doxorubicin-induced senescent foreskin cells (Examples 1-2, 10, 11, 13; Tables 4, 63, 65); type: cell-based, human; details: doxorubicin-induced senescent foreskin cells, CellTiter-Glo, 0 μM = 100
# Method: After 3 days, cell viability was measured using CellTiter-Glo Luminescent Cell Viability Assay (Promega) or light microscopy.
# HMGN1 [7] = test: HMGN1 ELISA in culture medium of A549 cancer cells (Example 12, Table 66); type: cell-based, human; details: doxorubicin-induced senescent A549 cells, test compound 30 μM, ELISA, DMSO = 100
# [8] = open field test in obese mice given senescent cells killed by test compounds (Example 16, Table 72); type: in vivo, C57BL6J mice; details: obese mice administered senescent cells whose death was induced by the test compound
# Description: To obtain preadipocytes, groin fat tissue was collected from an 8-week-old female C57BL6J mouse (purchased from KRIBB Laboratory Animal Resource Center). The fat tissue was cut into small pieces and treated with collagenase to decompose the fat tissue, then centrifuged to collect the stromal vascular fraction (SVF) containing preadipocytes. It was washed with a washing medium (HBSS, purchased from GenDEPOT; 3.5% Albumin Fraction V, purchased from GenDEPOT; 100 U/ml Penicillin & Streptomycin, purchased from Invitrogen), mixed again, and extracted by filtering through a 100 μm nylon mesh. The isolated preadipocytes were cultured in the designated medium (DMEM, purchased from GenDEPOT; 20% FBS, purchased from GenDEPOT; 100 U/ml Penicillin & Streptomycin, purchased from Invitrogen). In the same manner as Example 1, cells were treated with doxorubicin at a concentration of 250 nM for 24 hours and cultured for an additional 21 days to induce cell senescence. Cells were treated with doxorubicin at a concentration of 250 nM for 24 hours and cultured for an additional 21 days to induce cell senescence. By treating the test compounds in the same manner as in Example 13, it was confirmed using an optical microscope that the death of most senescent cells was induced. The killed preadipocytes were washed using PBS (purchased from Welgene) and then mixed with PBS at a concentration of 5×10^5 cells/200 μl. It was administered subcutaneously to 8-week-old female C57BL6J mice (purchased from KRIBB Laboratory Animal Resource Center). At 7 and 10 days after administration of the killed senescent cells, 2 million senescent preadipocytes were mixed in 200 μl of PBS and administered into the abdominal cavity of mice. After administration of killed senescent cells, obesity was induced in mice with a high-fat diet (DIO) for 8 weeks in the same manner as in Example 9-1. Afterwards, the mouse was sacrificed in the same manner as in Example 7-2, total RNA was extracted from the groin fat tissue, and qRT-PCR was performed and analyzed using the synthesized cDNA. […] The mRNA amount of p16, MMP3, and IL6 without administration of senescent cells whose death was induced by the test compounds was calculated as 100%, and the amount of p16, MMP3, and IL6 after administration of the senescent cells whose death was induced by the test compounds was compared with them. Furthermore, an open field test was performed to analyze aging-related frailty in mice using the same method as Example 7-7. […] The amount of activity evaluation without administration of senescent cells whose death was induced by the test compounds was calculated as 100% and compared it with the amount of activity evaluation after administration of senescent cells whose death was induced by the test compounds.
# [9] = chlorhexidine gluconate-induced peritoneal fibrosis in mice (Example 6-2); type: in vivo, C57BL6J mice; details: 0.1% CHG 10 ml/kg i.p. every 2 days for 20 days; LX-112 70 mg/kg i.p. daily from day 9
# Method: After 8-week-old male C57BL6J mice (purchased from KRIBB Laboratory Animal Resource Center) were adapted to the experimental environment for 1 week, the mice were randomized into an experimental group and a control group. To induce peritoneal fibrosis, 0.1% chlorhexidine gluconate (CHG, purchased from Sigma) was dissolved in 15% ethanol phosphate buffer solution and administered intraperitoneally at a concentration of 10 ml/kg every 2 days for 20 days. From day 9, LX-112 was mixed with 0.5% CMC-Na solution (purchased from Sigma) and administered intraperitoneally at a concentration of 70 mg/kg every day. The control group (−) was administered only the solution in the same volume. On the 20th day, paraffin sections of peritoneal tissue prepared by fixation in 4% paraformaldehyde solution were stained with H/E (Hematoxylin/Eosin) and trichrome, and the thickness of the peritoneal mesothelial cell layer was measured under a light microscope.
# [10] = 1 μM, culture medium after 6 hours, senescent foreskin cells
# [11] = ABT-263 1 μM or LX-112 10 μM, 6 hours
Molecule,"IL6 mRNA (%) (p16, MMP3, IL6 [3])","MMP3 mRNA (%) (p16, MMP3, IL6 [3])","p16 mRNA (%) (p16, MMP3, IL6 [3])","IL6 mRNA (%) (p16, MMP3, IL6 [4])","MMP3 mRNA (%) (p16, MMP3, IL6 [4])","p16 mRNA (%) (p16, MMP3, IL6 [4])",Survival (%) (A549; 1.1 μM test compound),Open Field Test Time in Center (%) [5],HMGN1 (HMGN1 [1]),Survival (senescent foreskin cells),Survival (%) ([6]; 1.1 μM test compound),Survival (%) ([6]; […] test compound),HMGN1 (amount of HMGN1 secreted in the cell culture) (HMGN1 [7]),Open Field Test Time in Center (%) [8],further results
CC(O)[C@@H]1NC(=O)COCCOCCNC(=O)[C@H](C(C)O)NC(=O)N[C@@H](C(C)O)C(=O)NNC1=O (some centres unmarked) [Example 80],–,–,–,–,–,–,–,–,–,–,–,–,–,–,Splenocyte proliferation recovery (Splenocyte): Splenocyte proliferation recovery 91%
"CC1(C)CCC(c2ccc(Cl)cc2)=C(CN2CCN(c3ccc(C(=O)NS(=O)(=O)c4ccc(N[C@H](CCN5CCOCC5)CSc5ccccc5)c(S(=O)(=O)C(F)(F)F)c4)cc3)CC2)C1 [ABT-263, reference compound]",–,–,–,–,–,–,–,–,–,–,–,–,–,–,"HMGN1 (pg/ml) (HMGN1 [1]; [10]): 105.3 (±13.5) pg/ml; HMGN1 secreted in the culture medium from dying senescent cells (HMGN1 [1]; [11]): no significant change; HMGB1 (pg/ml) (HMGB1; [10]): 462.7 (±21.6) pg/ml; HMGB1 secreted in the culture medium from dying senescent cells (HMGB1; [11]): little change; Survial (%) ([2]; QVD-Oph 20 μM applied 4 hours before): 98.4 (±2.6) %; Survial (%) ([2]; without QVD-Oph): 23.8 (±5.5) %; inhibition of the death of senescent cells by the caspase inhibitor ([2]; QVD-Oph 20 μM, LX-112 10 μM): completely inhibited"
Decyltriphenylphosphonium [LX-1202],62.8 (±8.9) %,70.7 (±7.5) %,67.2 (±12.1) %,74.1 (±6.1) %,40.2 (±22.7) %,74.2 (±10.4) %,53.4,231 (±23) %,289,55.1,22.7,3.1,301,175.9 (±21.5) %,–
"N=C(NCCCCCCNC(=N)NC(=N)Nc1ccc(Cl)cc1)NC(=N)Nc1ccc(Cl)cc1.O=C(O)[C@H](O)[C@@H](O)[C@H](O)[C@H](O)CO.O=C(O)[C@H](O)[C@@H](O)[C@H](O)[C@H](O)CO [CHG, chlorhexidine gluconate, reference compound]",–,–,–,–,–,–,–,–,–,–,–,–,–,–,Submesothelial Thickness (μm) [9]: 69.1 (±6.4) μm
S=C(N/N=C1\CCCc2cccnc21)N1CCN(c2ccccn2)CC1 [LX-801],79.4 (±4.6) %,81.7 (±2.9) %,79.8 (±3.4) %,71.1 (±1.8) %,76.5 (±4.2) %,69.4 (±6.9) %,78.1,241.8 (±17.9) %,265,52.7,50.5,48.9,329,216.8 (±12.8) %,Survival (%) (A549; 10 μM test compound): 12.7%; Survival (%) ([6]; 10 μM test compound): 28.2%
"CC(=O)OC[C@H]1O[C@@H]([S-])[C@H](OC(C)=O)[C@@H](OC(C)=O)[C@@H]1OC(C)=O.CCP(CC)CC.[Au+] [LX-201, Auranofin, reference compound]",76.8 (±6.4) %,67.1 (±9.2) %,79.5 (±7.6) %,65.7 (±5.1) %,77 (±9.6) %,85 (±8.2) %,72.5,226.4 (±27.6) %,291,62.9,98.2,3,337,176 (±22.6) %,–
